Here are results for 5 molecules from patent US5840684A, “Glycopeptide antibiotic derivatives” (Eli Lilly and Company, priority 1995, dated 1998).

Test [1] has as its system Staphylococcus aureus S13E. It is filed as cell-based. How it is done: (§1) The MIC's were determined using a standard broth micro-dilution assay.
Test [2] has as its system Staphylococcus aureus SA1199B. It is filed as cell-based. How it is done:
as §1

For test [3], the system named is Entercoccus faecium 180-1. The test is described as follows: broth micro-dilution MIC. In kind it is cell-based. How it is done: as §1
A further test concerns Entercoccus faecium 276. The test is described as follows: broth micro-dilution MIC. In kind it is cell-based. How it is done:
as §1

Test [4] concerns Staphylococcus aureus 446. Description: broth micro-dilution MIC. In kind it is cell-based. How it is done:
as §1
A general note: Dilution methods test growth across graded concentrations, often in twofold steps.

Test [5] deals with Staphylococcus aureus 447. Description: broth micro-dilution MIC. It is filed as cell-based. How it is done:
as §1

Test [6] relates to Staphylococcus aureus 489. Description: broth micro-dilution MIC. It is filed as cell-based. How it is done:
as §1

The subject of test [7] is Staphylococcus aureus 491. The test is described as follows: broth micro-dilution MIC. In kind it is cell-based. How it is done: as §1
The subject of test [8] is Staphylococcus aureus SA1199A. Description: broth micro-dilution MIC. In kind it is cell-based. How it is done:
as §1

Test [9] relates to Staphylococcus aureus SA1199. Description: broth micro-dilution MIC. In kind it is cell-based. How it is done: as §1
The subject of test [10] is Staphylococcus aureus X400. Description: broth micro-dilution MIC. In kind it is cell-based. How it is done: as §1
Test [11] deals with Staphylococcus aureus X778. Description: broth micro-dilution MIC. It is filed as cell-based. How it is done: as §1
Test [12] has as its system Streptococcus pyogenes C203. Description: broth micro-dilution MIC. In kind it is cell-based. How it is done:
as §1

Another test concerns Entercoccus faecium 180. The test is described as follows: broth micro-dilution MIC. To be noted: Entercoccus faecium 180. It is filed as cell-based. How it is done:
(§2) The formula I compounds have in vitro and in vivo activity against Gram-positive pathogenic bacteria. The MIC's were determined using a standard broth micro-dilution assay.

The test system of the next test is Entercoccus faecium 2041. The test is described as follows: broth micro-dilution MIC. To be noted: Entercoccus faecium 2041. In kind it is cell-based. How it is done:
as §2

Test [13] concerns Enterococcus gallinarum 245. Description: broth micro-dilution MIC. It is filed as cell-based. To be noted: Enterococcus gallinarum 245. How it is done:
as §2

Another test relates to Escherichia coli EC14. The test is described as follows: broth micro-dilution MIC. It is filed as cell-based. How it is done: as §2
Test [14] concerns Haemophilus influenzae RD. The test is described as follows: broth micro-dilution MIC. It is filed as cell-based. To be noted: Haemophilus influenzae RD. How it is done: as §2
For test [15], the system named is Staphylococcus epidermidis 270. Description: broth micro-dilution MIC. It is filed as cell-based. How it is done: as §2
In test [16] the test system is Staphylococcus haemolyticus 105. Description: broth micro-dilution MIC. It is filed as cell-based. How it is done: as §2
The subject of test [17] is Staphylococcus haemolyticus 415. The test is described as follows: broth micro-dilution MIC. It is filed as cell-based. How it is done:
as §2

For test [18], the system named is Streptococcus pneumoniae P1. The test is described as follows: broth micro-dilution MIC. In kind it is cell-based. How it is done:
as §2

Test [19] concerns vancomycin-resistant enterococci. Description: broth micro-dilution, mean geometric MIC. It is filed as cell-based, Enterococcus faecium and Enterococcus faecalis. To be noted: enterococci, 24-hour incubation.
The test system of test [20] is vancomycin-susceptible enterococci. Description: broth micro-dilution, mean geometric MIC. To be noted: enterococci, 24-hour incubation. In kind it is cell-based, Enterococcus faecium and Enterococcus faecalis.

In brackets after ≈: the same amount, converted by molar mass.

On to `CC(C)CC(C(=O)NC1C(=O)NC(CC(N)=O)C(=O)NC2C(=O)NC3C(=O)NC(C(=O)NC(C(=O)O)c4cc(O)cc(O)c4-c4cc3ccc4O)C(OC3CC(C)(N)C(O)C(C)O3)c3ccc(c(Cl)c3)Oc3cc2cc(c3OC2OC(CO)C(O)C(O)C2OC2CC(C)(NCc3ccc(-c4ccccc4)cc3)C(O)C(C)O2)Oc2ccc(cc2Cl)C1O)N(C)Cc1ccc(-c2ccccc2)cc1` (stereo not drawn) [Compound 251], for which the MIC in test [1] is no more than 0.06 µg/mL; in test [2], no more than 0.06 µg/mL; in test [3], no more than 0.06 µg/mL; against Entercoccus faecium 276 it was no more than 0.06 µg/mL; in test [4], 0.25 µg/mL (≈ 0.13 µM); in test [5], 0.125 µg/mL (≈ 0.0649 µM). The MIC in [6], in test [7], in [8], in test [9], in [10] and in [11] was no more than 0.06 µg/mL throughout. In addition, the MIC in test [12] was no more than 0.06 µg/mL; against Entercoccus faecium 180 it was 2 µg/mL (≈ 1.04 µM); in the test with Entercoccus faecium 2041, no more than 0.06 µg/mL; in [13], 4 µg/mL (≈ 2.08 µM); in the test with Escherichia coli EC14, greater than 64 µg/mL; in test [14], greater than 64 µg/mL. For the same molecule, the MIC in test [15] is 0.25 µg/mL (≈ 0.13 µM); in test [16], 2 µg/mL (≈ 1.04 µM); in [17] it was 4 µg/mL (≈ 2.08 µM); in [18], no more than 0.06 µg/mL. Further, in test [19], the “mean geometric MIC, Vancomycin Resistant Strains” value worked out at 2 µg/mL. For the same molecule, the “mean geometric MIC, Vancomycin Sensitive Strains” value in [20] is 0.66 µg/mL.

Turning to `CC(C)CC(C(=O)NC1C(=O)NC(CC(N)=O)C(=O)NC2C(=O)NC3C(=O)NC(C(=O)NC(C(=O)O)c4cc(O)cc(O)c4-c4cc3ccc4O)C(OC3CC(C)(N)C(O)C(C)O3)c3ccc(c(Cl)c3)Oc3cc2cc(c3OC2OC(CO)C(O)C(O)C2OC2CC(C)(N)C(O)C(C)O2)Oc2ccc(cc2Cl)C1O)N(C)Cc1ccc(-c2ccc(Cl)cc2)cc1.O=C(O)C(F)(F)F` (stereo not drawn) [Compound 252], the MIC in [1] was 0.125 µg/mL; in test [2] it was no more than 0.06 µg/mL; in test [3] it was no more than 0.06 µg/mL; against Entercoccus faecium 276, no more than 0.06 µg/mL; in test [4] it was 0.125 µg/mL; in test [5] it was no more than 0.06 µg/mL. Moreover, the MIC in test [6] is no more than 0.06 µg/mL; in test [7], no more than 0.06 µg/mL; in [8] it was no more than 0.06 µg/mL; in [9], 0.125 µg/mL; in [10] it was 0.125 µg/mL; in test [11] it was no more than 0.06 µg/mL. Besides, the MIC is no more than 0.06 µg/mL in test [12]; 0.5 µg/mL against Entercoccus faecium 180; no more than 0.06 µg/mL against Entercoccus faecium 2041; 1 µg/mL in test [13]; greater than 64 µg/mL in the test on Escherichia coli EC14; greater than 64 µg/mL in test [14]. Moreover, the MIC in test [15] is 0.125 µg/mL; in [16], 0.5 µg/mL; in [17], 1 µg/mL; in test [18] it was no more than 0.06 µg/mL. For the same molecule, in test [19], the “mean geometric MIC, Vancomycin Resistant Strains” value is 9.5 µg/mL. Besides, the “mean geometric MIC, Vancomycin Sensitive Strains” value in test [20] was found to be 0.1 µg/mL.

For the molecule `CC(C)CC(C(=O)NC1C(=O)NC(CC(N)=O)C(=O)NC2C(=O)NC3C(=O)NC(C(=O)NC(C(=O)O)c4cc(O)cc(O)c4-c4cc3ccc4O)C(OC3CC(C)(N)C(O)C(C)O3)c3ccc(c(Cl)c3)Oc3cc2cc(c3OC2OC(CO)C(O)C(O)C2OC2CC(C)(NCc3ccc(-c4ccc(Cl)cc4)cc3)C(O)C(C)O2)Oc2ccc(cc2Cl)C1O)N(C)Cc1ccc(-c2ccc(Cl)cc2)cc1.O=C(O)C(F)(F)F` (stereo not drawn) [Compound 253], the MIC turned out to be 32 µg/mL in [1]; 32 µg/mL in test [2]; 0.5 µg/mL in test [3]; 16 µg/mL with Entercoccus faecium 276; 64 µg/mL in test [4]; 16 µg/mL in [5]. Also, the MIC in [6] amounted to 16 µg/mL; in [7], 2 µg/mL; in test [8], 1 µg/mL; in [9] it was 32 µg/mL; in test [10], 32 µg/mL; in [11] it was 16 µg/mL. Further, the MIC in [12] was 0.25 µg/mL; in the test with Entercoccus faecium 180, 0.5 µg/mL; in the test with Entercoccus faecium 2041, 4 µg/mL; in [13] it was 16 µg/mL; against Escherichia coli EC14, greater than 64 µg/mL; in [14], greater than 64 µg/mL. For the same molecule, the MIC in test [15] came out at 8 µg/mL; in [16] it was 16 µg/mL; in test [17], 16 µg/mL; in test [18], 0.125 µg/mL. The “mean geometric MIC, Vancomycin Resistant Strains” value in test [19] worked out at 4.8 µg/mL. Moreover, in test [20], the “mean geometric MIC, Vancomycin Sensitive Strains” value amounted to 3 µg/mL.

Regarding `CNC(CC(C)C)C(=O)NC1C(=O)NC(CC(N)=O)C(=O)NC2C(=O)NC3C(=O)NC(C(=O)NC(C(=O)O)c4cc(O)cc(O)c4-c4cc3ccc4O)C(OC3CC(C)(NCc4ccc(-c5ccc(Cl)cc5)cc4)C(O)C(C)O3)c3ccc(c(Cl)c3)Oc3cc2cc(c3OC2OC(CO)C(O)C(O)C2OC2CC(C)(NCc3ccc(-c4ccc(Cl)cc4)cc3)C(O)C(C)O2)Oc2ccc(cc2Cl)C1O.O=C(O)C(F)(F)F` (stereo not drawn) [Compound 254], the MIC in test [1] was found to be 32 µg/mL; in test [2], 16 µg/mL; in test [3], 0.25 µg/mL; against Entercoccus faecium 276 it was 8 µg/mL; in [4] it was 32 µg/mL; in test [5], 16 µg/mL. The MIC in test [6] was 16 µg/mL; in test [7], 1 µg/mL; in test [8] it was 0.5 µg/mL; in test [9] it was 8 µg/mL; in test [10], 8 µg/mL; in [11] it was 4 µg/mL. In addition, the MIC was 0.5 µg/mL in test [12]; 0.25 µg/mL against Entercoccus faecium 180; 4 µg/mL in the test with Entercoccus faecium 2041; 16 µg/mL in [13]; greater than 64 µg/mL against Escherichia coli EC14; greater than 64 µg/mL in test [14]. Further, the MIC in test [15] is 8 µg/mL; in [16], 16 µg/mL; in [17], 16 µg/mL; in [18], no more than 0.06 µg/mL. Also, the “mean geometric MIC, Vancomycin Resistant Strains” value in test [19] was found to be 2 µg/mL. Also, the “mean geometric MIC, Vancomycin Sensitive Strains” value in [20] was found to be 0.5 µg/mL.

Regarding `CC(C)CC(C(=O)NC1C(=O)NC(CC(N)=O)C(=O)NC2C(=O)NC3C(=O)NC(C(=O)NC(C(=O)O)c4cc(O)cc(O)c4-c4cc3ccc4O)C(OC3CC(C)(NCc4ccc(-c5ccc(Cl)cc5)cc4)C(O)C(C)O3)c3ccc(c(Cl)c3)Oc3cc2cc(c3OC2OC(CO)C(O)C(O)C2OC2CC(C)(NCc3ccc(-c4ccc(Cl)cc4)cc3)C(O)C(C)O2)Oc2ccc(cc2Cl)C1O)N(C)Cc1ccc(-c2ccc(Cl)cc2)cc1.O=C(O)C(F)(F)F` (stereo not drawn) [Compound 255], the MIC is greater than 64 µg/mL in test [1]; greater than 64 µg/mL in test [2]; 16 µg/mL in test [3]; greater than 64 µg/mL against Entercoccus faecium 276; 64 µg/mL in test [4]; greater than 64 µg/mL in [5]. Also, the MIC in test [6] was greater than 64 µg/mL; in test [7], greater than 64 µg/mL; in test [8], 16 µg/mL; in test [9] it was greater than 64 µg/mL; in test [10], greater than 64 µg/mL; in [11], greater than 64 µg/mL. Moreover, the MIC was 16 µg/mL in [12]; greater than 64 µg/mL against Entercoccus faecium 180; 16 µg/mL against Entercoccus faecium 2041; greater than 64 µg/mL in test [13]; greater than 64 µg/mL against Escherichia coli EC14; greater than 64 µg/mL in test [14]. For the same molecule, the MIC was greater than 64 µg/mL in [15], greater than 64 µg/mL in test [16], greater than 64 µg/mL in [17] and 1 µg/mL in test [18]. Besides, the “mean geometric MIC, Vancomycin Resistant Strains” value in [19] came out at 64 µg/mL. Also, the “mean geometric MIC, Vancomycin Sensitive Strains” value in [20] worked out at 32 µg/mL.
